# Test results published in patent US20120142015A1, “GFP FUSION PROTEINS AND THEIR USE” (The Board of Trustees of The University of Illinois, priority 2001, published 2012).
# Key:
# Gαs-GFP [1] = format: cell-based
# β-adrenergic receptor = experiment: cell-based or functional assay
# Gαs-GFP [2] = format: cell-based; remark: listed apart in the source
# [3] = living cells transfected with Gαs-GFP
compound,measurement,setting,value
CC(C)NCC(O)c1ccc(O)c(O)c1 (centres unmarked) [isoproterenol],cells showing internalized Gαs-GFP in response to isoproterenol,"Gαs-GFP [1]; isoproterenol 20 μM, COS cells, 37° C., 58 cells in 15 experiments",Approximately 70%
same,release of Gαs-GFP from plasma membrane into the cytoplasm,Gαs-GFP [1]; [3],rapid partial release of Gαs-GFP into the cytoplasm
same,time after treatment at which extent of Gαs-GFP release from plasma membrane was maximal,Gαs-GFP [1]; [3],1 min
Gαs-GFP fusion protein (GFP inserted within the internal amino acid sequence of long Gαs),percent of cells with internalized Gαs-GFP in response to isoproterenol (20 µM),β-adrenergic receptor,70%
cholera toxin,displacement of Gαs-GFP from the plasma membrane,Gαs-GFP [2],gradual displacement of Gαs-GFP from the plasma membrane throughout the cytoplasm
